Results published in ChEMBL document CHEMBL5365440, “Design, synthesis, and structure-activity relationship of a bicyclic HBV capsid assembly modulator chemotype leading to the identification of clinical candidate AB-506” (Bioorg Med Chem Lett, 2023).
In brackets after ≈: the same amount, converted by molar mass.

Legend:
Hepatitis B virus [1] = experiment: Antiviral activity against Hepatitis B virus infected in human HepDE19 cells assessed as reduction in viral replication incubated for 3 to 7 days by PCR analysis; assay type: functional, organism-based
[2] = Microsomal stability in mouse liver microsomes assessed as intrinsic clearance; assay type: ADME, Microsome; settings: read-out: CLH
[3] = Microsomal stability in human liver microsomes assessed as intrinsic clearance; assay type: ADME, Microsome; settings: read-out: CLH
[4] = Aqueous solubility of the compound in PBS buffer at pH 7.4; assay type: physicochemical
[5] = Cytotoxicity against human HepDE19 cells incubated for 48 hrs by cell titer-glo luminescent based cell viability assay; assay type: toxicity
Hepatitis B virus [6] = experiment: Antiviral activity against Hepatitis B virus infected in mouse AML12 cells assessed as reduction in viral replication incubated for 2 days by SYBR green based PCR analysis; assay type: functional, organism-based; settings: AML12, 48 h
[7] = Clearance in CD-1 mouse at 2 mg/kg,iv; assay type: ADME, organism-based; settings: in vivo
Cytochrome P450 2D6 = Cytochrome P450 2D6 (Homo sapiens, UniProt P10635); experiment: Inhibition of CYP2D6 (unknown origin); assay type: ADME
Cytochrome P450 2C19 = Cytochrome P450 2C19 (Homo sapiens, UniProt P33261); experiment: Inhibition of CYP2C19 (unknown origin); assay type: ADME
[8] = Half life in dog at 2 mg/kg,iv; assay type: ADME, organism-based, Canis lupus familiaris; settings: in vivo
Cytochrome P450 2C9 = Cytochrome P450 2C9 (Homo sapiens, UniProt P11712); experiment: Inhibition of CYP2C9 (unknown origin); assay type: ADME
[9] = Cmax in dog at 10 mg/kg,po; assay type: ADME, organism-based, Canis lupus familiaris; set-up: dose 10 mg/kg, route po; settings: in vivo
Hepatitis B virus [10] = experiment: Antiviral activity against Hepatitis B virus Genotype D infected in NOD.CB17-PrkdcSCID/J mouse model assessed as reduction in serum HBV DNA level at po dosed for 7 consecutive days; assay type: functional, organism-based
in vivo [11] = settings: rat, po, 10 mg/kg
Description: AUC (0-infinity) in rat at 10 mg/kg,po

Cytochrome P450 1A2 = molecular target: T1, Cytochrome P450 1A2 (Homo sapiens, UniProt P05177); experiment: Inhibition of CYP1A2 (unknown origin); assay type: ADME
T1 sequence (P05177 whole entry): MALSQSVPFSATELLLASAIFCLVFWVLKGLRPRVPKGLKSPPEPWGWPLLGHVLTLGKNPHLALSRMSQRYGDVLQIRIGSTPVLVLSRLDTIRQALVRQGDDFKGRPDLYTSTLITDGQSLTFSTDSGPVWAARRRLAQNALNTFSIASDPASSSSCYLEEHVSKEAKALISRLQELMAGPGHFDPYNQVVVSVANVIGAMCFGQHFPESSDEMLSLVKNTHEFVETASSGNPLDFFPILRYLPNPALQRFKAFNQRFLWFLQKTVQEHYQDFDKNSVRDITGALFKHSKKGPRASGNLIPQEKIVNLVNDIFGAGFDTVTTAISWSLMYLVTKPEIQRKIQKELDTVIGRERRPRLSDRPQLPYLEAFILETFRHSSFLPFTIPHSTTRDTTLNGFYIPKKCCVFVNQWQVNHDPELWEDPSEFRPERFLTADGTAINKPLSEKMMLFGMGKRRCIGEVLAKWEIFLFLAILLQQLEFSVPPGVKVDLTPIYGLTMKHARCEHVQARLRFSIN

[12] = Clearance in rat at 2 mg/kg,iv; assay type: ADME, organism-based; settings: in vivo
[13] = Clearance in dog at 2 mg/kg,iv; assay type: ADME, organism-based, Canis lupus familiaris; settings: in vivo
Hepatitis B virus [14] = experiment: Antiviral activity against Hepatitis B virus Genotype D infected in NOD.CB17-PrkdcSCID/J mouse model assessed as log reduction in serum HBV DNA level at 100 mg/kg,po dosed for 7 consecutive days by qPCR analysis; assay type: functional
[15] = AUC (0-infinity) in CD-1 mouse at 10 mg/kg,po; assay type: ADME, organism-based; set-up: dose 10 mg/kg, route po; settings: in vivo
[16] = Half life in CD-1 mouse at 2 mg/kg,iv; assay type: ADME, organism-based; settings: in vivo
[17] = Half life in rat at 2 mg/kg,iv; assay type: ADME, organism-based; settings: in vivo
in vivo [18] = settings: dog, po, 10 mg/kg
Description: AUC (0-infinity) in dog at 10 mg/kg,po

Hepatitis B virus [19] = experiment: Antiviral activity against Hepatitis B virus Genotype D infected in NOD.CB17-PrkdcSCID/J mouse model assessed as log reduction in serum HBV DNA level at 30 mg/kg,po dosed for 7 consecutive days by qPCR analysis; assay type: functional
[20] = Cmax in rat at 10 mg/kg,po; assay type: ADME, organism-based; set-up: dose 10 mg/kg, route po; settings: in vivo
Cytochrome P450 3A4 = Cytochrome P450 3A4 (Homo sapiens, UniProt P08684); experiment: Inhibition of CYP3A4 (unknown origin); assay type: ADME
Hepatitis B virus [21] = experiment: Antiviral activity against Hepatitis B virus Genotype D infected in NOD.CB17-PrkdcSCID/J mouse model assessed as log reduction in serum HBV DNA level at 10 mg/kg,po dosed for 7 consecutive days by qPCR analysis; assay type: functional
[22] = Cmax in CD-1 mouse at 10 mg/kg,po; assay type: ADME, organism-based; set-up: dose 10 mg/kg, route po; settings: in vivo

Chain of Cytochrome P450 2C19 (P33261 whole entry): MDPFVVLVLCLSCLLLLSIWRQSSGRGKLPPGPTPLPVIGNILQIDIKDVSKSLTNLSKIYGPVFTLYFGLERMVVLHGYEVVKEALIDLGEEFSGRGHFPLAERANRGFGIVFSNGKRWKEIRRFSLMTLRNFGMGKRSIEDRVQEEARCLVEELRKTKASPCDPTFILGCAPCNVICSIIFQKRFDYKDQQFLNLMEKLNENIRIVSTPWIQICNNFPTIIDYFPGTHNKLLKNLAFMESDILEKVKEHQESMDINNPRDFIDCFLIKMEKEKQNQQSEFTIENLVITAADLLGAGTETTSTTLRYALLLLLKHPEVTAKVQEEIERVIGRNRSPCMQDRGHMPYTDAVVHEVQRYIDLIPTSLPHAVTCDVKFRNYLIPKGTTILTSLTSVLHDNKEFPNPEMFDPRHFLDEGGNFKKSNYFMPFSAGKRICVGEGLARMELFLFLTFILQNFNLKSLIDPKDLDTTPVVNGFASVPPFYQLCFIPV
Chain of Cytochrome P450 3A4 (P08684 whole entry): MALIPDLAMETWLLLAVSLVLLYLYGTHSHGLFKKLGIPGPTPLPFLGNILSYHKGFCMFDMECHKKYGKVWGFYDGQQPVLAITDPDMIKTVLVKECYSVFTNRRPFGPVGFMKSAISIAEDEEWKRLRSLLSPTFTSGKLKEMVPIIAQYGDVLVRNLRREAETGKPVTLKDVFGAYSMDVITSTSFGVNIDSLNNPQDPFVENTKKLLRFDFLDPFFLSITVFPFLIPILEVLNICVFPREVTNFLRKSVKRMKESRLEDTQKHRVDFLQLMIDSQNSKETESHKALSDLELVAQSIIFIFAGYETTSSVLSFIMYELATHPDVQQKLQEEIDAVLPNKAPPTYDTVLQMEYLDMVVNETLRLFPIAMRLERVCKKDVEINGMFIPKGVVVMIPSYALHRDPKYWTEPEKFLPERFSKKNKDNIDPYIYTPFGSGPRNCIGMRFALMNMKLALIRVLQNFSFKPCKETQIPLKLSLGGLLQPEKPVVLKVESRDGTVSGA
Chain of Cytochrome P450 2C9 (P11712 whole entry): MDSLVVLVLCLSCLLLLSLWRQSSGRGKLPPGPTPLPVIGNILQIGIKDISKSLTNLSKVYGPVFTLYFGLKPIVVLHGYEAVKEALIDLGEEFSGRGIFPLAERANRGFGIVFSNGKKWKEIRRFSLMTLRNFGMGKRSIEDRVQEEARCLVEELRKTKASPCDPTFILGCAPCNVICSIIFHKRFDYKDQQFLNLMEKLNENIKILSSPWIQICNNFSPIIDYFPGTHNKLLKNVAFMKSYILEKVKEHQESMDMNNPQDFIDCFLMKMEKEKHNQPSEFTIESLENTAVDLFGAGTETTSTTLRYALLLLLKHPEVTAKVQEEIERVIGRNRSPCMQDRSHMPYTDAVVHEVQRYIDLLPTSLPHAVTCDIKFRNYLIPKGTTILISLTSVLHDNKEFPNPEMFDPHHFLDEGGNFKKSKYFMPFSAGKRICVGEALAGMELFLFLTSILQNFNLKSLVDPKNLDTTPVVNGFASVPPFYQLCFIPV
Chain of Cytochrome P450 2D6 (P10635 whole entry): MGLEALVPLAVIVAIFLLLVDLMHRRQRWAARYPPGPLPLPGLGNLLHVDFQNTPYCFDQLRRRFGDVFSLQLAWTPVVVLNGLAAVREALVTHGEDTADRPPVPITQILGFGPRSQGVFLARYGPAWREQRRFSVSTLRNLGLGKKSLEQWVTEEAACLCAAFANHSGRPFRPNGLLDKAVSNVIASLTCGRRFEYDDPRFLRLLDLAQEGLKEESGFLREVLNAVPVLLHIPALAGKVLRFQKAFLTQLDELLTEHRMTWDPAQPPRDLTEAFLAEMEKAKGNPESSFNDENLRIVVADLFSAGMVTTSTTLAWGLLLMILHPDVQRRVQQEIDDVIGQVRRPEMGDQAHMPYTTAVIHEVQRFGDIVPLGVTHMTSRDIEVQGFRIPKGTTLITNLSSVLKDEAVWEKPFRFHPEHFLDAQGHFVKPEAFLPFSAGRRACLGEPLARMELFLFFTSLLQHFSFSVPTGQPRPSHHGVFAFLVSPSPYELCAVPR

Compound | EC50 (Hepatitis B virus [1]) | microsomal CLint [2] | microsomal CLint [3] | solubility [4] | other results
O=C(N[C@H]1CCc2c(C(=O)Nc3ccc(F)c(Cl)c3)ccc(F)c21)OCc1ncccn1 | 120 nM | 17 µL/min/mg | 3.5 µL/min/mg | 4.5 µM (≈ 2.06 µg/mL) | –
O=C(N[C@H]1CCc2c(C(=O)Nc3ccc(F)c(Cl)c3)ccc(F)c21)OCc1ccon1 | 120 nM | 33 µL/min/mg | 4.8 µL/min/mg | < 1.6 µM | –
O=C(N[C@H]1CCc2c(C(=O)Nc3ccc(F)c(Cl)c3)ccc(F)c21)OCc1nc[nH]n1 | 79 nM | 9 µL/min/mg | 0.2 µL/min/mg | 6.1 µM (≈ 2.73 µg/mL) | –
COCCOC(=O)N[C@H]1CCc2c(C(=O)Nc3ccc(F)c(Cl)c3)ccc(F)c21 | 190 nM | 8.1 µL/min/mg | 8.2 µL/min/mg | 2.8 µM (≈ 1.19 µg/mL) | –
O=C(N[C@H]1CCc2c(C(=O)Nc3ccc(F)c(Cl)c3)ccc(F)c21)OCc1cnccn1 | 120 nM | 18 µL/min/mg | 6.9 µL/min/mg | < 1.6 µM | –
COC(=O)N[C@H]1CCCOc2c(C(=O)Nc3ccc(F)c(F)c3)cccc21 | > 25000 nM | – | – | – | –
COC(=O)N[C@H]1CCOc2c(C(=O)Nc3ccc(F)c(F)c3)ccc(F)c21 | 570 nM | – | – | – | CC50 at 48 h [5]: > 25 µM
COC(=O)N[C@H]1CCOc2c(C(=O)Nc3ccc(F)c(Cl)c3)cccc21 | 850 nM | – | – | – | EC50 (Hepatitis B virus [6]): 280 nM; CC50 at 48 h [5]: > 25 µM
Cn1ccnc1COC(=O)N[C@H]1CCc2c(C(=O)Nc3ccc(F)c(Cl)c3)ccc(F)c21 | 280 nM | 96 µL/min/mg | 104 µL/min/mg | < 1.6 µM | –
Cn1nccc1COC(=O)N[C@H]1CCc2c(C(=O)Nc3ccc(F)c(Cl)c3)ccc(F)c21 | 100 nM | 25 µL/min/mg | 38 µL/min/mg | 9.1 µM (≈ 4.19 µg/mL) | –
O=C(N[C@H]1CCc2c(C(=O)Nc3ccc(F)c(Cl)c3)ccc(F)c21)OCCO | 200 nM | 3 µL/min/mg | 1 µL/min/mg | 6.4 µM (≈ 2.63 µg/mL) | –
O=C(N[C@H]1CCc2c(C(=O)Nc3ccc(F)c(Cl)c3)ccc(F)c21)OCc1ccncn1 | 390 nM | 45 µL/min/mg | 1 µL/min/mg | 7.5 µM (≈ 3.44 µg/mL) | –
COC(=O)N[C@H]1CCOc2c(C(=O)Nc3cc(F)c(F)c(F)c3)cccc21 | 1170 nM | – | – | – | CC50 at 48 h [5]: > 25 µM
Cn1cnc(COC(=O)N[C@H]2CCc3c(C(=O)Nc4ccc(F)c(Cl)c4)ccc(F)c32)n1 | 77 nM | 21 µL/min/mg | 6.2 µL/min/mg | 14.8 µM (≈ 6.84 µg/mL) | clearance [7]: 18 mL/min/kg; IC50 (Cytochrome P450 2D6): > 20 µM; IC50 (Cytochrome P450 2C19): > 20 µM; half-life [8]: 684 min; IC50 (Cytochrome P450 2C9): > 20 µM; Cmax [9]: 6820 ng/mL; Activity (Hepatitis B virus [10]): Dose-Dependent Effect; AUC(0-inf) (in vivo [11]): 39600 ng·h/mL; IC50 (Cytochrome P450 1A2): > 20 µM; clearance [12]: 4.6 mL/min/kg; clearance [13]: 1.25 mL/min/kg; Activity (Hepatitis B virus [14]): 2.9 log10CFU; AUC(0-inf) [15]: 9870 ng·h/mL; half-life [16]: 150 min; half-life [17]: 192 min; AUC(0-inf) (in vivo [18]): 134 µg·h/mL; Activity (Hepatitis B virus [19]): 2.4 log10CFU; Cmax [20]: 2850 ng/mL; IC50 (Cytochrome P450 3A4): > 20 µM; Activity (Hepatitis B virus [21]): 1 log10CFU
COC(=O)N[C@H]1CCOc2c(C(=O)Nc3ccc(F)c(F)c3)cccc21 | 2250 nM | – | – | – | EC50 (Hepatitis B virus [6]): 710 nM; CC50 at 48 h [5]: > 25 µM
O=C(N[C@H]1CCc2c(C(=O)Nc3ccc(F)c(Cl)c3)ccc(F)c21)OCc1ncco1 | 71 nM | 23 µL/min/mg | 7.5 µL/min/mg | < 1.6 µM | –

Compound | EC50 (Hepatitis B virus [1]) | microsomal CLint [2] | microsomal CLint [3] | solubility [4] | other results
O=C(N[C@H]1CCc2c(C(=O)Nc3ccc(F)c(Cl)c3)ccc(F)c21)OCc1cc[nH]n1 | 74 nM | 17 µL/min/mg | 8 µL/min/mg | < 1.6 µM | –
COC(=O)N[C@H]1COc2c(C(=O)Nc3ccc(F)c(F)c3)cccc21 | 1320 nM | 41 µL/min/mg | 5 µL/min/mg | – | –
CC(=O)NCCOC(=O)N[C@H]1CCc2c(C(=O)Nc3ccc(F)c(Cl)c3)ccc(F)c21 | 190 nM | 17 µL/min/mg | 133 µL/min/mg | 43.4 µM (≈ 19.6 µg/mL) | –
COC(=O)N[C@H]1CCOc2c(C(=O)Nc3ccc(F)c(F)c3)c(F)cc(F)c21 | 800 nM | – | – | – | CC50 at 48 h [5]: > 25 µM
Cn1ccc(COC(=O)N[C@H]2CCc3c(C(=O)Nc4ccc(F)c(Cl)c4)ccc(F)c32)n1 | 47 nM | 23 µL/min/mg | 7.9 µL/min/mg | 4.8 µM (≈ 2.21 µg/mL) | clearance [7]: 19 mL/min/kg; Activity (Hepatitis B virus [10]): Dose-Dependent Effect; Activity (Hepatitis B virus [14]): 2.5 log10CFU; AUC(0-inf) [15]: 5160 ng·h/mL; half-life [16]: 210 min; Cmax [22]: 913 ng/mL; Activity (Hepatitis B virus [19]): 1.4 log10CFU; Activity (Hepatitis B virus [21]): 0.5 log10CFU
COC(=O)N[C@H]1CCOc2c1ccc(F)c2C(=O)Nc1ccc(F)c(Cl)c1 | 2230 nM | – | – | – | CC50 at 48 h [5]: > 25 µM
COC(=O)N[C@H]1CCc2c(C(=O)Nc3ccc(F)c(F)c3)cccc21 | 590 nM | 9.2 µL/min/mg | 0.6 µL/min/mg | – | –
COC(=O)N[C@H]1CCOc2c1ccc(F)c2C(=O)Nc1ccc(F)c(F)c1 | 3710 nM | – | – | – | CC50 at 48 h [5]: > 25 µM
COC(=O)N[C@H]1CCCc2c(C(=O)Nc3ccc(F)c(F)c3)cccc21 | 8600 nM | 21 µL/min/mg | 0.3 µL/min/mg | – | –
O=C(N[C@H]1CCc2c(C(=O)Nc3ccc(F)c(Cl)c3)ccc(F)c21)OCc1ccccn1 | 95 nM | 36 µL/min/mg | 11 µL/min/mg | < 1.6 µM | clearance [7]: 28 mL/min/kg; Activity (Hepatitis B virus [10]): Dose-Dependent Effect; Activity (Hepatitis B virus [14]): 1.6 log10CFU; AUC(0-inf) [15]: 7230 ng·h/mL; half-life [16]: 72 min; Cmax [22]: 695 ng/mL; Activity (Hepatitis B virus [19]): 0.8 log10CFU
COC(=O)N[C@H]1CCOc2c(C(=O)Nc3ccc(F)c(Cl)c3)ccc(F)c21 | 200 nM | – | – | – | CC50 at 48 h [5]: > 25 µM
COCCCOC(=O)N[C@H]1CCc2c(C(=O)Nc3ccc(F)c(Cl)c3)ccc(F)c21 | 580 nM | 55 µL/min/mg | 10 µL/min/mg | 3 µM (≈ 1.32 µg/mL) | –
COC(=O)N[C@H]1CCc2c(C(=O)Nc3ccc(F)c(Cl)c3)ccc(F)c21 | 170 nM | 9.2 µL/min/mg | 3.5 µL/min/mg | < 1.6 µM | –
O=C(N[C@H]1CCc2c(C(=O)Nc3ccc(F)c(Cl)c3)ccc(F)c21)OCCn1ccnc1 | 300 nM | 20 µL/min/mg | 20 µL/min/mg | 16.9 µM (≈ 7.79 µg/mL) | –
O=C(Nc1ccc(F)c(Cl)c1)c1cccc2c1OCCO2 | – | – | – | – | EC50 (Hepatitis B virus [6]): 200 nM
